Reference: patent publication US20260262643A1, “HERBICIDAL BENZOXAZINES” (FMC CORPORATION, priority 2022, published 2026)

Columns and labels:
barnyardgrass [1] = test: Test C preemergence; format: in vivo, Echinochloa crusgalli; conditions: for Plant response rating, Barnyardgrass: Preemergence; for Barnyardgrass plant response rating: Test C, preemergence, 125 g ai/ha
Method in brief: (§1)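 Test material, in non-phytotoxic solvent with surfactant, was sprayed on the soil directly after seeding (preemergence) or on young plants of 2–10 cm with one to two leaves (postemergence). Greenhouse, 10 days; 0–100 visual control scale.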

blackgrass [2] = test: Test C preemergence; format: in vivo, Alopecurus myosuroides; conditions: for Plant response rating, Blackgrass: Preemergence; for Blackgrass plant response rating: Test C, preemergence, 125 g ai/ha
Method in brief: as §1

corn [3] = test: Test C preemergence; format: in vivo, Zea mays; conditions: for Plant response rating, Corn: Preemergence; for Corn plant response rating: Test C, preemergence, 125 g ai/ha
Method in brief: as §1

green foxtail [4] = test: Test C preemergence; format: in vivo, Setaria viridis; conditions: for Plant response rating, Foxtail, Green: Preemergence; for Foxtail, Green plant response rating: Test C, preemergence, 125 g ai/ha
Method in brief: as §1

kochia [5] = test: Test C preemergence; format: in vivo, Bassia scoparia; conditions: for Plant response rating, Kochia: Preemergence; for Kochia plant response rating: Test C, preemergence, 125 g ai/ha
Method in brief: as §1

oat, wild [6] = test: Test C preemergence; format: in vivo, Avena fatua; conditions: for Plant response rating, Oat, Wild: Preemergence; for Oat, Wild plant response rating: Test C, preemergence, 125 g ai/ha
Method in brief: as §1

pigweed, palmer [7] = test: Test C preemergence; format: in vivo, Amaranthus palmeri; conditions: for Plant response rating, Pigweed, Palmer: Preemergence; for Pigweed, Palmer plant response rating: Test C, preemergence, 125 g ai/ha
Method in brief: as §1

ragweed [8] = test: Test C preemergence; format: in vivo, Ambrosia artemisiifolia; conditions: for Plant response rating, Ragweed: Preemergence; for Ragweed plant response rating: Test C, preemergence, 125 g ai/ha
Method in brief: as §1

soybean [9] = test: Test C preemergence; format: in vivo, Glycine max; conditions: for Plant response rating, Soybean: Preemergence; for Soybean plant response rating: Test C, preemergence, 125 g ai/ha
Method in brief: as §1

wheat [10] = test: Test C preemergence; format: in vivo, Triticum aestivum; conditions: for Plant response rating, Wheat: Preemergence; for Wheat plant response rating: Test C, preemergence, 125 g ai/ha
Method in brief: as §1

barnyardgrass [11] = test: Test C postemergence; format: in vivo, Echinochloa crusgalli; conditions: 10 days
Method in brief: as §1

blackgrass [12] = test: Test C postemergence; format: in vivo, Alopecurus myosuroides; conditions: 10 days
Method in brief: as §1

corn [13] = test: Test C postemergence; format: in vivo, Zea mays; conditions: 10 days
Method in brief: as §1

green foxtail [14] = test: Test C postemergence; format: in vivo, Setaria viridis; conditions: 10 days
Method in brief: as §1

kochia [15] = test: Test C postemergence; format: in vivo, Bassia scoparia; conditions: 10 days
Method in brief: as §1

oat, wild [16] = test: Test C postemergence; format: in vivo, Avena fatua; conditions: 10 days
Method in brief: as §1

pigweed, palmer [17] = test: Test C postemergence; format: in vivo, Amaranthus palmeri; conditions: 10 days
Method in brief: as §1

ragweed [18] = test: Test C postemergence; format: in vivo, Ambrosia artemisiifolia; conditions: 10 days
Method in brief: as §1

ryegrass, Italian = test: Test C postemergence; format: in vivo, Lolium multiflorum; conditions: 10 days
Method in brief: as §1

soybean [19] = test: Test C postemergence; format: in vivo, Glycine max; conditions: 10 days
Method in brief: as §1

wheat [20] = test: Test C postemergence; format: in vivo, Triticum aestivum; conditions: 10 days
Method in brief: as §1

galium = test: Test C postemergence; format: in vivo, Galium aparine; conditions: 10 days
Method in brief: as §1

horseweed = test: Test C postemergence; format: in vivo, Erigeron canadensis; conditions: 10 days
Method in brief: as §1

barnyardgrass [21] = test: Test D flooded paddy test; format: in vivo, Echinochloa crus-galli; conditions: 250 g ai/ha, applied to paddy water, visual rating after 13 to 14 days, scale 0 to 100 (0 no effect, 100 complete control)
Method in brief: (§2)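 Visual ratings from 0, meaning no effect, to 100, meaning complete control, were assigned against untreated controls 13 to 14 days after compounds were added to the floodwater of pots kept 3 cm deep, with plants at the 2-leaf stage.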

ducksalad = test: Test D flooded paddy test; format: in vivo, Heteranthera limosa; conditions: 250 g ai/ha, applied to paddy water, visual rating after 13 to 14 days, scale 0 to 100 (0 no effect, 100 complete control)
Method in brief: as §2

rice = test: Test D flooded paddy test; format: in vivo, Oryza sativa; conditions: 250 g ai/ha, applied to paddy water, visual rating after 13 to 14 days, scale 0 to 100 (0 no effect, 100 complete control)
Method in brief: as §2

sedge, umbrella = test: Test D flooded paddy test; format: in vivo, Cyperus difformis; conditions: 250 g ai/ha, applied to paddy water, visual rating after 13 to 14 days, scale 0 to 100 (0 no effect, 100 complete control)
Method in brief: as §2

[22] = 500 g ai/ha, visual rating after 10 days, 0 to 100 scale (0 no effect, 100 complete control)
[23] = 0 to 100 scale (0 no effect, 100 complete control)
[24] = 125 g ai/ha, postemergence, 0 to 100 scale, 0 no effect, 100 complete control
[25] = Postemergence, 500 g ai/ha, visual 0 to 100 scale (0 no effect, 100 complete control)
[26] = 31 g ai/ha, 0 to 100 scale, 0 no effect, 100 complete control
[27] = Postemergence, 31 g ai/ha, 0 to 100 scale, 0 no effect, 100 complete control

CCc1c(C)cc(-n2cnc(C(C)C)n2)cc1C(=O)N1C[C@H](C)Oc2c(Cl)cccc21 [Compound 179]
50: Plant response rating, Foxtail, Green (green foxtail [4]; [22]) | Plant response rating, Galium (galium; [24])
90: Plant response rating, Galium (galium; [25])
10: Plant response rating, Pigweed, Palmer (pigweed, palmer [7]; [22]) | Plant response rating, Barnyardgrass (barnyardgrass [11]; [24]) | Plant response rating, Barnyardgrass (barnyardgrass [11]; [25]) | Plant response rating, Corn (corn [13]; [25]) | Plant response rating, Foxtail, Green (green foxtail [14]; [24]) | Plant response rating, Pigweed, Palmer (pigweed, palmer [17]; [24]) | Plant response rating, Ragweed (ragweed [18]; [25]) | Plant response rating, Wheat (wheat [20]; [24]) | Plant response rating, Wheat (wheat [20]; [25])
60: Plant response rating, Pigweed, Palmer (pigweed, palmer [17]; [25])
40: Plant response rating, Soybean (soybean [19]; [25]) | Plant response rating, Horseweed (horseweed; [25])
0: Plant response rating, Barnyardgrass (barnyardgrass [1]; [22]) | Barnyardgrass plant response rating (barnyardgrass [1]; [23]) | Plant response rating, Blackgrass (blackgrass [2]; [22]) | Blackgrass plant response rating (blackgrass [2]; [23]) | Plant response rating, Corn (corn [3]; [22]) | Corn plant response rating (corn [3]; [23]) | Foxtail, Green plant response rating (green foxtail [4]; [23]) | Plant response rating, Kochia (kochia [5]; [22]) | Kochia plant response rating (kochia [5]; [23]) | Plant response rating, Oat, Wild (oat, wild [6]; [22]) | Oat, Wild plant response rating (oat, wild [6]; [23]) | Pigweed, Palmer plant response rating (pigweed, palmer [7]; [23]) | Plant response rating, Ragweed (ragweed [8]; [22]) | Ragweed plant response rating (ragweed [8]; [23]) | Plant response rating, Soybean (soybean [9]; [22]) | Soybean plant response rating (soybean [9]; [23]) | Plant response rating, Wheat (wheat [10]; [22]) | Wheat plant response rating (wheat [10]; [23]) | Plant response rating, Blackgrass (blackgrass [12]; [24]) | Plant response rating, Blackgrass (blackgrass [12]; [25]) | Plant response rating, Corn (corn [13]; [24]) | Plant response rating, Oat, Wild (oat, wild [16]; [24]) | Plant response rating, Oat, Wild (oat, wild [16]; [25]) | Plant response rating, Ryegrass, Italian (ryegrass, Italian; [24]) | Plant response rating, Horseweed (horseweed; [24]) | Plant response rating, Barnyardgrass (Flood) (barnyardgrass [21]) | Plant response rating, Ducksalad (Flood) (ducksalad) | Plant response rating, Rice (Flood) (rice) | Plant response rating, Sedge, Umbrella (Flood) (sedge, umbrella)
30: Plant response rating, Kochia (kochia [15]; [24]) | Plant response rating, Kochia (kochia [15]; [25])
20: Plant response rating, Foxtail, Green (green foxtail [14]; [25]) | Plant response rating, Ryegrass, Italian (ryegrass, Italian; [25])

CCC(O)(CC)c1ncn(-c2ccc(C)c(C(=O)N3C[C@H](C)Oc4c(Cl)cccc43)c2)n1 [Compound 180]
30: Plant response rating, Foxtail, Green (green foxtail [4]; [26]) | Plant response rating, Kochia (kochia [15]; [27]) | Plant response rating, Pigweed, Palmer (pigweed, palmer [17]; [27])
90: Plant response rating, Soybean (soybean [19]; [27]) | Plant response rating, Galium (galium; [24])
0: Plant response rating, Barnyardgrass (barnyardgrass [1]; [26]) | Plant response rating, Blackgrass (blackgrass [2]; [26]) | Plant response rating, Corn (corn [3]; [26]) | Corn plant response rating (corn [3]; [23]) | Plant response rating, Kochia (kochia [5]; [26]) | Kochia plant response rating (kochia [5]; [23]) | Plant response rating, Oat, Wild (oat, wild [6]; [26]) | Plant response rating, Pigweed, Palmer (pigweed, palmer [7]; [26]) | Plant response rating, Ragweed (ragweed [8]; [26]) | Plant response rating, Soybean (soybean [9]; [26]) | Plant response rating, Wheat (wheat [10]; [26]) | Wheat plant response rating (wheat [10]; [23]) | Plant response rating, Blackgrass (blackgrass [12]; [27]) | Plant response rating, Corn (corn [13]; [27]) | Plant response rating, Oat, Wild (oat, wild [16]; [27]) | Plant response rating, Ryegrass, Italian (ryegrass, Italian; [27]) | Plant response rating, Horseweed (horseweed; [24]) | Plant response rating, Horseweed (horseweed; [27]) | Plant response rating, Barnyardgrass (Flood) (barnyardgrass [21]) | Plant response rating, Rice (Flood) (rice)
65: Plant response rating, Ducksalad (Flood) (ducksalad)
40: Plant response rating, Ragweed (ragweed [18]; [27]) | Plant response rating, Sedge, Umbrella (Flood) (sedge, umbrella)
60: Barnyardgrass plant response rating (barnyardgrass [1]; [23]) | Pigweed, Palmer plant response rating (pigweed, palmer [7]; [23]) | Plant response rating, Ragweed (ragweed [18]; [24])
50: Oat, Wild plant response rating (oat, wild [6]; [23]) | Soybean plant response rating (soybean [9]; [23]) | Plant response rating, Kochia (kochia [15]; [24]) | Plant response rating, Ryegrass, Italian (ryegrass, Italian; [24])
20: Blackgrass plant response rating (blackgrass [2]; [23]) | Ragweed plant response rating (ragweed [8]; [23]) | Plant response rating, Barnyardgrass (barnyardgrass [11]; [24]) | Plant response rating, Foxtail, Green (green foxtail [14]; [24]) | Plant response rating, Wheat (wheat [20]; [24])
100: Plant response rating, Soybean (soybean [19]; [24])
10: Plant response rating, Barnyardgrass (barnyardgrass [11]; [27]) | Plant response rating, Blackgrass (blackgrass [12]; [24]) | Plant response rating, Corn (corn [13]; [24]) | Plant response rating, Foxtail, Green (green foxtail [14]; [27]) | Plant response rating, Wheat (wheat [20]; [27])
70: Foxtail, Green plant response rating (green foxtail [4]; [23]) | Plant response rating, Oat, Wild (oat, wild [16]; [24]) | Plant response rating, Pigweed, Palmer (pigweed, palmer [17]; [24]) | Plant response rating, Galium (galium; [27])
